The target in one assay is T1, DCAF15 (Homo sapiens, UniProt Q66K64, DEL276-383).
T1 construct: made in house; host or cells: Sf9 (baculovirus, Bac-to-Bac)
Nature of the assay: DCAF15 Displacement Assay (displacement of probe PT7795, FRET). The following applies: competition with 300 nM PT7795 on DDA1-DDB1ΔB-DCAF15Δpro triplex, 18 hours incubation, FRET 665/615. Type of assay: binding. An excerpt:
(§1) Proteins used for the assays were as follows: Human DDA1 (UniProt:Q9BW61), DDB1 (UniPro:Q16531), and DCAF15 (UniProt:Q66K64) coding sequences were cloned into pFastBac1 vectors and were co-expressed in Sf9 cells using Bac-to-Bac baculovirus expression system (Thermo Fisher Scientific). The expression construct for DCAF15 includes a N-terminal His6-tag to facilitate the purification. The atrophin-1 homology region of DCAF15 (amino acid residues 276-383) was excised (Apro, originally to facilitate crystallization). Triplex of DDA1-DDB1ΔB-DCAF15Apro, which has the BPB domain (aa 396 to 705) excised and replaced with a GNGNSG linker, was used in all the kinetic measurements because of the higher yield. R^1R^2 of RBM39 (aa 150 to 331; UniProt: Q14498) contained a C-terminal FLAG tag used in the DCAF15/RBM39 complex formation assay. DCAF15 Displacement Assay (Displacement FRET KD)
The previously described procedure was followed (See X. Du, et al., “Structural Basis and Kinetic Pathway of RBM39 Recruitment to DCAF15 by a Sulfonamide Molecular Glue E7820”, Structure, 27, 1625-1633.e3, 2019). Synthesis of the probe PT7795 is described in the article.
Binding of PT7795 to DDA1-DDB1ΔB-DCAF15Apro was measured by the FRET signal between europium-labeled anti-His antibody (AD0205, Perkin Elmer) that is associated with His-tagged DCAF15 and ALX647 moiety in PT7795. The concentration of PT7795 was varied from 2.3 nM to 1000 nM in 16 wells, each containing 25 mM HEPES pH7.5, 100 mM NaCl, 0.1 mg/ml BSA, 0.005% Tween 20, 0.5 mM TCEP, 4% DMSO, 0.5 nM europium-labeled anti-His antibody, and 10 nM triplex of DDA1-DDB1 DB-DCAF15 Apro. After equilibrating for 2-3 hours at 4° C., the plate was removed from the incubator, briefly spun, then read on a Spark 10 (Tecan) at the excitation/emission wavelength of 340 nm/615 nm and 340 nm/665 nm. To obtain Kd, the ratio of 665/615 readings was fitted to Equation 1, where F stands for the ratio of 665/615 […].
Binding of compounds in this disclosure to DCAF15 was measured in a competition by the displacement of PT7795. The concentration of PT7795 was kept at 300 nM while the concentration of a compound was varied from 0.01 to 100 μM. The incubation time was increased to 18 hours for enhanced signal to noise level. To obtain IC50, the ratio of 665/615 readings was fitted to Equation 2, where n is Hill slope.

Assay [1] concerns the target T2, DCAF15 RBM39 ternary complex (Homo sapiens, UniProt Q14498+Q66K64, DEL276-383).
T2 construct: RBM39 (aa 150 to 331; UniProt: Q14498); TEV cleavage site (pGEX4T3 vector); made in house; host or cells: Sf9 (baculovirus) for the triplex; E. coli for the RBM39 fragment according to b294
The experiment in a line: DCAF15 RBM39 Ternary Complex Formation Assay. The class given is binding. The following applies: apparent EC50 for compound-induced complex formation, 10 nM DCAF15 triplex, 50 nM RBM39 R1R2, FRET 665/615.
From the text: as §1
His-tagged DDA1-DDB1ΔB-DCAFISΔpro triplex and RIR2 with a C-terminal FLAG were used in the assay and compound-induced complex formation was monitored through resonance transfer between europium-labeled anti-His antibody and APC-labeled anti-FLAG antibody (AD0059F, Perkin Elmer).

pEC50, pIC50: −log10 of the molar value.

As a reminder, the pIC50 is the negative decadic logarithm of the IC50, by convention in mol/L. High values mean a low IC50, low ones a high IC50. One may read the pEC50 as the EC50 on a negative log10 scale, so that one unit is a factor of ten.

As to `COCCOCCCN1Cc2cc(Cl)c3c(Cl)c[nH]c3c2NS1(=O)=O` [Compound 1, 6,7-dichloro-3-(3-(2-methoxyethoxy)propyl)-1,3,4,9-tetrahydro-[1,2,6]thiadiazino[4,3-g]indole 2,2-dioxide], the pIC50 at DCAF15 was 5.85. For the same compound, the pEC50 in assay [1] is 7.90.
Take `COCCOCCOCCCN1Cc2cc(Cl)c3c(Cl)c[nH]c3c2NS1(=O)=O` [Compound 2, 6,7-dichloro-3-(3-(2-(2-methoxyethoxy)ethoxy)propyl)-1,3,4,9-tetrahydro-[1,2,6]thiadiazino[4,3-g]indole 2,2-dioxide]: the negative logarithm of the IC50 (pIC50) at DCAF15 was 4.60. Also, the pEC50 in assay [1] is 6.61.
For `COCCCCCOCCCN1Cc2cc(Cl)c3c(Cl)c[nH]c3c2NS1(=O)=O` [Compound 3, 6,7-dichloro-3-(3-((5-methoxypentyl)oxy)propyl)-1,3,4,9-tetrahydro-[1,2,6]thiadiazino[4,3-g]indole 2,2-dioxide] the same measures were 5.60 and 7.67.
In the case of `COCCOCC(=O)N1CCC(CN2Cc3cc(Cl)c4c(Cl)c[nH]c4c3NS2(=O)=O)CC1` [Compound 4, 1-(4-((6,7-dichloro-2,2-dioxido-4,9-dihydro-[1,2,6]thiadiazino[4,3-g]indol-3(1H)-yl)methyl)piperidin-1-yl)-2-(2-methoxyethoxy)ethan-1-one], at DCAF15, the pIC50 was 6.70. The pEC50 in assay [1] is 8.37.
For `COCCOCC(=O)N1CCCC(CN2Cc3cc(Cl)c4c(Cl)c[nH]c4c3NS2(=O)=O)C1` (stereo not shown) [Compound 5, 1-(3-((6,7-dichloro-2,2-dioxido-4,9-dihydro-[1,2,6]thiadiazino[4,3-g]indol-3(1H)-yl)methyl)piperidin-1-yl)-2-(2-methoxyethoxy)ethan-1-one], in that order: 7.01 and 8.11.
Compound `COCCCCC(=O)N1CCC(CN2Cc3cc(Cl)c4c(Cl)c[nH]c4c3NS2(=O)=O)CC1` [Compound 6, 1-(4-((6,7-dichloro-2,2-dioxido-4,9-dihydro-[1,2,6]thiadiazino[4,3-g]indol-3(1H)-yl)methyl)piperidin-1-yl)-5-methoxypentan-1-one] showed a pIC50 on DCAF15 of 6.81. Besides, the pEC50 in assay [1] was 8.37.
`COCCCCC(=O)N1CCCC(CN2Cc3cc(Cl)c4c(Cl)c[nH]c4c3NS2(=O)=O)C1` (stereo not shown) [Compound 7, 1-(3-((6,7-dichloro-2,2-dioxido-4,9-dihydro-[1,2,6]thiadiazino[4,3-g]indol-3(1H)-yl)methyl)piperidin-1-yl)-5-methoxypentan-1-one] had a pIC50 on DCAF15 of 6.32. For the same compound, the pEC50 in assay [1] was 7.97.
On DCAF15, `CC(C)(C)OC(=O)NCCCCC(=O)N1CCC(CN2Cc3cc(Cl)c4c(Cl)c[nH]c4c3NS2(=O)=O)CC1` [Compound 8, tert-butyl (5-(4-((6,7-dichloro-2,2-dioxido-4,9-dihydro-[1,2,6]thiadiazino[4,3-g]indol-3(1H)-yl)methyl)piperidin-1-yl)-5-oxopentyl)carbamate] gave a pIC50 of 6.58. The pEC50 in assay [1] is 8.35.
For `NCCCCC(=O)N1CCC(CN2Cc3cc(Cl)c4c(Cl)c[nH]c4c3NS2(=O)=O)CC1` [Compound 9, 5-amino-1-(4-((6,7-dichloro-2,2-dioxido-4,9-dihydro-[1,2,6]thiadiazino[4,3-g]indol-3(1H)-yl)methyl)piperidin-1-yl)pentan-1-one], in that order: 6.61 and 8.31.
For `CNC(=O)c1[nH]c2c3c(cc(Cl)c2c1Cl)CN(CC1CCCNC1)S(=O)(=O)N3` (stereo not shown) [Compound 10, 6,7-dichloro-N-methyl-3-(piperidin-3-ylmethyl)-1,3,4,9-tetrahydro-[1,2,6]thiadiazino[4,3-g]indole-8-carboxamide 2,2-dioxide], in that order: 5.68 and below 4.60.
On DCAF15, `CNC(=O)c1[nH]c2c3c(cc(Cl)c2c1Cl)CN(CC1CCCN(C(=O)OC(C)(C)C)C1)S(=O)(=O)N3` (stereo not shown) [Compound 11, tert-butyl 3-((6,7-dichloro-8-(methylcarbamoyl)-2,2-dioxido-4,9-dihydro-[1,2,6]thiadiazino[4,3-g]indol-3(1H)-yl)methyl)piperidine-1-carboxylate] had a negative logarithm of the IC50 (pIC50) of 5.84. Further, in assay [1], the pEC50 was below 4.60.
`CNC(=O)c1[nH]c2c3c(cc(Cl)c2c1Cl)CN(CC1CCCN(C(C)=O)C1)S(=O)(=O)N3` (stereo not shown) [Compound 12, 3-((1-acetylpiperidin-3-yl)methyl)-6,7-dichloro-N-methyl-1,3,4,9-tetrahydro-[1,2,6]thiadiazino[4,3-g]indole-8-carboxamide 2,2-dioxide] showed a pIC50 on DCAF15 of 6.17. In addition, in assay [1], the pEC50 is below 4.60.
As to `COCCCN1Cc2cc(Cl)c3c(Cl)c(C(=O)OC)[nH]c3c2NS1(=O)=O` [Compound 13, methyl 6,7-dichloro-3-(3-methoxypropyl)-1,3,4,9-tetrahydro-[1,2,6]thiadiazino[4,3-g]indole-8-carboxylate 2,2-dioxide], the pIC50 on DCAF15 was 5.89. Moreover, the pEC50 in assay [1] was below 4.60.
At DCAF15, `CCOC(=O)c1[nH]c2c3c(cc(Cl)c2c1Cl)CN(CCCOC)S(=O)(=O)N3` [Compound 14, ethyl 6,7-dichloro-3-(3-methoxypropyl)-1,3,4,9-tetrahydro-[1,2,6]thiadiazino[4,3-g]indole-8-carboxylate 2,2-dioxide] showed a pIC50 of 5.69. Also, in assay [1], the pEC50 is 5.60.
Take `CNC(=O)c1[nH]c2c3c(cc(Cl)c2c1Cl)CN(CCCOC)S(=O)(=O)N3` [Compound 15, 6,7-dichloro-3-(3-methoxypropyl)-N-methyl-1,3,4,9-tetrahydro-[1,2,6]thiadiazino[4,3-g]indole-8-carboxamide 2,2-dioxide]: the pIC50 at DCAF15 is 5.89. In addition, the pEC50 in assay [1] is below 4.60.
`COCCCN1Cc2cc(Cl)c3c(Cl)c(CCCC(=O)O)[nH]c3c2NS1(=O)=O` [Compound 18, 4-(6,7-dichloro-3-(3-methoxypropyl)-2,2-dioxido-1,3,4,9-tetrahydro-[1,2,6]thiadiazino[4,3-g]indol-8-yl)butanoic acid] had a pIC50 on DCAF15 of 6.19. The pEC50 in assay [1] was below 4.60.
`COCCCN1Cc2cc(Cl)c3c(Cl)c(CCCC(N)=O)[nH]c3c2NS1(=O)=O` [Compound 19, 4-(6,7-dichloro-3-(3-methoxypropyl)-2,2-dioxido-1,3,4,9-tetrahydro-[1,2,6]thiadiazino[4,3-g]indol-8-yl)butanamide] had a pIC50 at DCAF15 of 6.08. The negative logarithm of the EC50 (pEC50) in assay [1] was below 4.60.
For `CC(=O)N1CCCC(CN2Cc3cc(Cl)c4c(Cl)c(CCCC(N)=O)[nH]c4c3NS2(=O)=O)C1` (stereo not shown) [Compound 20, 4-(3-((1-acetylpiperidin-3-yl)methyl)-6,7-dichloro-2,2-dioxido-1,3,4,9-tetrahydro-[1,2,6]thiadiazino[4,3-g]indol-8-yl)butanamide] the same measures were 6.98 and below 4.60.
In turn, `CC(C)(C)OC(=O)N1CCCC(CN2Cc3cc(Cl)c4c(Cl)c(CCCC(N)=O)[nH]c4c3NS2(=O)=O)C1` (stereo not shown) [Compound 22, tert-butyl 3-((8-(4-amino-4-oxobutyl)-6,7-dichloro-2,2-dioxido-4,9-dihydro-[1,2,6]thiadiazino[4,3-g]indol-3(1H)-yl)methyl)piperidine-1-carboxylate] gave a pIC50 on DCAF15 of 5.24. For the same compound, in assay [1], the pEC50 is below 4.60.
`O=C(O)CCCc1[nH]c2c3c(cc(Cl)c2c1Cl)CN(CC1CCCNC1)S(=O)(=O)N3` (stereo not shown) [Compound 23, 4-(6,7-dichloro-2,2-dioxido-3-(piperidin-3-ylmethyl)-1,3,4,9-tetrahydro-[1,2,6]thiadiazino[4,3-g]indol-8-yl)butanoic acid] gave a pIC50 at DCAF15 of 6.56. The pEC50 in assay [1] is below 4.60.

Values taken from patent US20240400583A1, “TRICYCLIC SULFAMIDES AND SULTAMS” (Merck Sharp & Dohme LLC, priority 2021, published 2024).
